# Measurements taken from patent publication US10575485B2, “Wheat plants having increased resistance to imidazolinone herbicides” (The Department of Agriculture, Western Australia, priority 2002, dated 2020).
# Columns and labels:
# [1] = test system: Triticum aestivum wheat lines K-42 and Br-8; experiment: Seed soak and spray selection of mutagenised wheat lines for imazamox tolerance; type: in vivo; conditions: M3 seed soaked in 50 ppm solution for 24 hours, subsequent plants sprayed with 50 ppm
# Description: 840 grams of seed of the Triticum aestivuni wheat varieties Krichauff and Brookton were soaked in a sodium azide solution (0.065 g/L) to produce M1 seed. M1 plants were allowed to self pollinate to produce M2 seed. M2 seed were soaked in a 50 ppm solution of the imidazolinone herbicide imazamox for 24 hours prior to sowing in the field. Resultant plants that appeared to have normal growth eight to nine weeks after sowing were transplanted from the field to a greenhouse for M3 seed production. To confirm herbicide tolerance, M3 seed were soaked in a 50 ppm solution of imazamox for 24 hours prior to sowing, and subsequent plants were sprayed with a solution of 50 ppm of imazamox.
# [2] = test system: wheat plants (K-42, Br-8, K-42/Br-8, wild type Krichauff and Brookton); experiment: Greenhouse herbicide tolerance, injury scored on a 0-9 scale; type: in vivo, Triticum aestivum; conditions: 40 and 120 g/ha
# Description: Tolerance of K-42 and Br-8 to the imidazolinone herbicide imazamox was evaluated at 40 and 120 g/ha in the greenhouse. Wild type Krichauff and Brookton were used as herbicide susceptible controls. 24 plants were treated at each rate at the 2-3 leaf stage. Injury was scored on a 0-9 scale, 0 representing no injury and 9 representing plant death. FIG. 4 summarizes the data collected 14 and 21 days after treatment. In Example 1, reference was made to crosses between K-42, containing a mutation in Als3 conferring imidazolinone herbicide tolerance, and FS-2 and Br-8, each containing a mutation in Als1 also conferring imidazolinone herbicide tolerance. Krichauff and Brookton are the wheat varieties from which K-42 and Br-8, respectively, were derived. Lines derived from the K-42/FS-2 cross were tolerant to rates of up to six times that required for economic weed control in the field. One line derived from the K-42/Br-8 cross was evaluated in the greenhouse for tolerance to 40 and 120 grams/hectare of irnazamox. Injury was scored on a 0-9 scale, 0 representing no injury and 9 representing plant death.
# [3] = test system: AHAS extracted from wild type and tolerant wheat plants; experiment: In vitro AHAS enzyme activity in the presence of imidazolinone herbicide; type: biochemical, Triticum aestivum
# Source text: Because the tolerance in K-42 and Br-8 is due to a mutation in the AHAS enzyme rendering it resistant to inhibition by imidazolinone herbicides, the in vitro activity of AHAS extracted from wild type plants (not having the mutation for tolerance) can be compared to the in vitro activity of AHAS extracted from tolerant plants in the presence of varying concentrations of an imidazolinone herbicide. K-42 was compared to the wild type variety Krichauff, and Br-8 was compared to the wild type variety Brookton. […] As explained in Example 2, the in vitro AHAS enzyme activity can be compared among lines with and without a mutation conferring resistance to inhibition by imidazolinone herbicides. […]
Compound,Herbicide tolerance of M2-derived lines K-42 and Br-8 [1],"Resistance and injury of K-42 and BR-8 relative to wild type counterparts (FIG. 4) ([2]; 2-3 leaf stage, 14 and 21 days after treatment)",Tolerance and injury of the line derived from the K-42/Br-8 cross (FIG. 6) ([2]; injury 0-9 scale),Residual uninhibited AHAS in Br-8 and K-42 ([3]; 100 μM imazamox),Uninhibited AHAS enzyme activity with increasing herbicide concentration (FIG. 5) ([3]; wild type Krichauff and Brookton versus K-42 and Br-8),"Percent uninhibited AHAS activity in the Br-8/K-42 combination (FIG. 7) ([3]; four highest herbicide concentrations, compared with Br-8, K-42 and wild type)"
COCc1cnc(C2=NC(C)(C(C)C)C(=O)N2)c(C(=O)O)c1 (stereo not drawn) [imazamox],identified as tolerant to imazamox,increased resistance and decreased injury,greatly enhanced tolerance at both 40 and 120 g/ha with very little injury,sufficient to provide a herbicide tolerant response,decreased faster in wild type lines than in either Br-8 or K-42,
CCc1cnc(C2=NC(C)(C(C)C)C(=O)N2)c(C(=O)O)c1 (stereo not drawn) [imazethapyr],,,,,,increase in percent uninhibited AHAS activity
